The subject of test [1] is Candida albicans IFO1270. Briefly: Survival of mice inoculated with Candida albicans after oral treatment (Test Example 2). The settings on record: ddY mice; 0.5% aqueous CMC solution containing 0.02% of test compound, orally, 5 ml/kg once a day for 4 days; survival ratio on final day (10 days following inoculation). The format is in vivo. How it is done: ddY mice aged 6 weeks were divided into a control group having 10 mice and test groups each having 5 mice. After inoculating with 4 ml/kg of Candida albicans IFO1270 (2.5×10^7 cells/ml), which had been incubated on Sabouraud's glucose agar medium at 37°C for 2 hours, a 0.5% aqueous CMC solution (containing 10% of polyethylene glycol 400 and 0.1% of Tween 80) containing 0.02% of each test compound was orally administered to the mice in a dose of 5 ml/kg once a day for 4 days. The viable […] were counted for 10 days following the inoculation and the survival ratio on the final day was calculated. […]

The test system of test [2] is Candida albicans IFO1270. Briefly: Growth inhibition of Candida albicans in Sabouraud's glucose broth (Test Example 1). The format is cell-based. Conditions: two days incubation at 37°C under shaking; for Growth inhibition ratio 0.1 µg/ml (%): 0.1 µg/ml test compound; for Growth inhibition ratio 10 µg/ml (%): 10 µg/ml test compound. The method, then: Sabouraud's glucose broth (9.8 ml) was inoculated with 0.1 ml of Candida albicans IFO1270 (1.0×10^6 cells/ml). Then 0.1 ml of a solution of each test compound dissolved with dimethylsulfoxide in an appropriate concentration was added to give concentrations of 10 µg/ml and 0.1 µg/ml. Two days after incubating at 37°C under shaking, the growth inhibition ratio was measured. […]

Four compounds from patent EP0753513A2, “Optically active triazole derivative, process for producing the same, antifungal agent, and use thereof” (NIHON NOHYAKU CO., LTD., priority 1995, dated 1997) can be followed below.

Take `C[C@@H](Cc1ccc(C#N)cc1)[C@](O)(Cn1cncn1)c1ccc(F)cc1F` [Compound 7, (2R,3S)-4-(4-cyanophenyl)-2-(2,4-difluorophenyl)-3-methyl-1-(1H-1,2,4-triazol-1-yl)butan-2-ol]: the “Survival ratio (%)” value in the test with Candida albicans IFO1270 [1] was 100%. In the test with Candida albicans IFO1270 [2], the “Growth inhibition ratio 0.1 µg/ml (%)” value was found to be 55% and the “Growth inhibition ratio 10 µg/ml (%)” value was 70%.
As to `C[C@@H](Cc1ccc(F)cc1F)[C@](O)(Cn1cncn1)c1ccc(F)cc1F` [Compound 2, (2R,3S)-2,4-bis(2,4-difluorophenyl)-3-methyl-1-(1H-1,2,4-triazol-1-yl)butan-2-ol], the “Survival ratio (%)” value with Candida albicans IFO1270 [1] worked out at 60%. Further, in the test on Candida albicans IFO1270 [2], the “Growth inhibition ratio 0.1 µg/ml (%)” value stood at 51% and the “Growth inhibition ratio 10 µg/ml (%)” value is on record as 66%.
For `CC(=O)N1CCN(c2ccc(OC[C@H]3CO[C@](Cn4ccnc4)(c4ccc(Cl)cc4Cl)O3)cc2)CC1` (relative stereo) [A, Cis-1-acetyl-4-[4-[[2-(2,4-dichlorophenyl)-2-(imidazol-1-ylmethyl)-1-3-oxolan-4-yl]methoxy]phenyl]piperazine, reference compound], in that order: 40%, 47% and 59%.
As for `C[C@@H](Cc1ccc(F)cc1)[C@](O)(Cn1cncn1)c1ccc(F)cc1F` [Compound 1, (2R,3S)-2-(2,4-difluorophenyl)-4-(4-fluorophenyl)-3-methyl-1-(1H-1,2,4-triazol-1-yl)butan-2-ol], the “Survival ratio (%)” value in the test with Candida albicans IFO1270 [1] is listed as 80%. For the same compound, in the test on Candida albicans IFO1270 [2], the “Growth inhibition ratio 0.1 µg/ml (%)” value is given as 48% and the “Growth inhibition ratio 10 µg/ml (%)” value was 64%.
